Measurements reported in patent US20080286235A1, “Antimicrobials and related methods” (priority 2006, published 2008).
≈ marks a conversion by molar mass, not a printed value.

Key:
[1] = test system: C3H/10T1/2 mouse embryo fibroblasts; settings: for LC50 value (reduces the plating efficiency to 50% of control cells) / CC50: 10T1/2 cells; for CC50: read-out: LC50 value; for Highest Non-Cytotoxic Concentration: mouse
[2] = in vitro; settings: mouse
[3] = test system: ringworm; assay: Cat ringworm treatment; assay type: in vivo, kittens; settings: Solution A 1:16 topically three times daily for three days

Compound	Highest Non-Cytotoxic Concentration [1] [mg/mL]	CC50 [2] [µg/mL]	other results
CC(=O)ON(C(C)=O)c1ccc2c(c1)Cc1ccccc1-2 [N-acetoxy-acetyl aminofluorene]			LC50 value (reduces the plating efficiency to 50% of control cells) [1]: 3.99 µg/mL; CC50 [1]: 15 µM
CC(=O)Nc1ccc(O)cc1 [Acetaminophen]	0.05	500 (≈ 3310 µM)	
OC1c2cc3ccc4cccc5ccc(c2C2OC2C1O)c3c45 (stereo not drawn) [BaP-anti-diol epoxide]			LC50 value (reduces the plating efficiency to 50% of control cells) [1]: 0.0755 µg/mL; CC50 [1]: 0.25 µM
C[C@@H]1O[C@@H](O[C@H]2C[C@@H](O)[C@]3(CO)[C@H]4[C@H](O)C[C@]5(C)[C@@H](C6=CC(=O)OC6)CC[C@]5(O)[C@@H]4CC[C@]3(O)C2)[C@H](O)[C@H](O)[C@H]1O [Ouabain]		500 (≈ 855 µM)	
CCOc1ccc(NC(C)=O)cc1 [Phenacetin]	0.18	1000 (≈ 5580 µM)	
COC(=O)Nc1nc2cc(C(=O)c3ccc(F)cc3)ccc2[nH]1 [Flubendazole]		0.15 (≈ 0.479 µM)	
CC(=O)Oc1ccccc1C(=O)O [Aspirin]	0.25		
COC1=CC(=O)C[C@@H](C)[C@]12Oc1c(Cl)c(OC)cc(OC)c1C2=O [Griseofulvin]			outcome of ringworm treatment [3]: no success
